From patent US20220040169A1, “Methods for the Administration of Certain VMAT2 Inhibitors” (Neurocrine Biosciences, Inc., priority 2019, published 2022)

Assays:
Solubility in water = assay type: physicochemical
Excerpt: INGREZZA contains valbenazine, present as valbenazine ditosylate salt, with the chemical name, L-Valine, (2R,3R,11bR)-1,3,4,6,7,11b-hexahydro-9,10-dimethoxy-3-(2-methylpropyl)-2H-benzo[a]quinolizin-2-yl ester, 4-methylbenzenesulfonate (1:2). […] Its molecular formula is C38H54N2O10S2, and its molecular weight is 762.97/mol (ditosylate salt) with the following structure: […]

[1] = Phase 2 and 3 controlled studies and long-term treatment in adults with tardive dyskinesia: Parkinson-like adverse events; assay type: in vivo, human
Excerpt: In the Phase 2 and 3 controlled studies in adults with tardive dyskinesia (treatment up to 6 weeks), the incidence of Parkinson-like adverse events (AEs) was 3% (vs. <1% for placebo) and 4% during long-term treatment with valbenazine (up to 48 weeks).

Structure (SMILES)	solubility in water (Solubility in water)	serious Parkinson-like AEs ([1]; NBI clinical studies in tardive dyskinesia patients)	incidence of Parkinson-like adverse events (AEs) ([1]; Phase 2 and 3 controlled studies, adults with tardive dyskinesia, treatment up to 6 weeks, placebo <1%)	incidence of Parkinson-like adverse events (AEs) during long-term treatment ([1]; long-term treatment up to 48 weeks)
COc1cc2c(cc1OC)[C@H]1C[C@@H](OC(=O)[C@@H](N)C(C)C)[C@H](CC(C)C)CN1CC2 [Valbenazine ditosylate, L-Valine, (2R,3R,11bR)-1,3,4,6,7,11b-hexahydro-9,10-dimethoxy-3-(2-methylpropyl)-2H-benzo[a]quinolizin-2-yl ester, 4-methylbenzenesulfonate (1:2)]	slightly soluble			
COc1cc2c(cc1OC)[C@H]1C[C@@H](OC(=O)[C@@H](N)C(C)C)[C@H](CC(C)C)CN1CC2 [valbenazine, (S)-2-amino-3-methyl-butyric acid (2R, 3R,11bR)-3-isobutyl-9,10-dimethoxy-1,3,4,6,7,11b-hexahydro-2H-pyrido[2,1-a]isoquinolin-2-yl ester]		No serious Parkinson-like AEs were reported	3%	4%
